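Tested at 5 concentrations; 48 h exposure; 96-well plates; endpoints linearly interpolated, else capped at highest concentration. Abbreviation: GI50, concentration required for 50% inhibition of growth.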 The source made the active and inactive calls. Rule as the data show it: active = GI50 up to about 1.1 µM and inactive = higher.
What was measured:
Experiment in all cases: inhibition of tumour cell growth, NCI panel, 48 h
NCI-H460 = test system: NCI-H460
SK-OV-3 = test system: SK-OV-3
SF-295 = test system: SF-295
SW-620 = test system: SW-620
Hs-578T = test system: Hs-578T
SF-539 = test system: SF-539
SK-MEL-2 = test system: SK-MEL-2
MDA-N = test system: MDA-N
MDA-MB-435 = test system: MDA-MB-435
TK-10 = test system: TK-10
RPMI-8226 = test system: RPMI-8226
DU-145 = test system: DU-145
CAKI-1 = test system: CAKI-1
NCI/ADR-RES = test system: NCI/ADR-RES
SR = test system: SR
HL-60 = test system: HL-60
OVCAR-4 = test system: OVCAR-4
K562 = test system: K562
HOP-92 = test system: HOP-92
UACC-62 = test system: UACC-62

Row | SMILES | GI50 (NCI-H460) | GI50 (SK-OV-3) | GI50 (SF-295) | GI50 (SW-620) | GI50 (Hs-578T) | GI50 (SF-539) | GI50 (SK-MEL-2) | GI50 (MDA-N) | GI50 (MDA-MB-435) | GI50 (TK-10) | GI50 (RPMI-8226) | GI50 (DU-145) | GI50 (CAKI-1) | GI50 (NCI/ADR-RES) | GI50 (SR) | GI50 (HL-60) | GI50 (OVCAR-4) | GI50 (K562) | GI50 (HOP-92) | GI50 (UACC-62)
1 | C=CC(=O)N1C/C(=C\c2ccc(F)cc2)C(=O)/C(=C/c2ccc(F)cc2)C1 | 0.593 µM (active) | 0.711 µM (active) | 0.44 µM (active) | 0.162 µM (active) | 0.235 µM (active) | 0.214 µM (active) | 0.843 µM (active) | 0.157 µM (active) | 0.299 µM (active) | 1 µM (active) | 0.0318 µM (active) | 1.67 µM (inactive) | 0.475 µM (active) | 0.365 µM (active) | 0.0491 µM (active) | 0.728 µM (active) | 0.339 µM (active) | 0.185 µM (active) | 3.03 µM (inactive) | 0.142 µM (active)
2 | O=C1CSC(c2cccc(Cl)c2)N1c1ccc(-n2c(-c3ccccc3)nc3ccccc3c2=O)cc1 (stereo not given) | 39.1 µM (inactive) | 88.7 µM (inactive) | > 100 µM (inactive) | > 100 µM (inactive) | 39.3 µM (inactive) | 67.1 µM (inactive) | > 100 µM (inactive) | > 100 µM (inactive) | 45.8 µM (inactive) | > 100 µM (inactive) | 52.4 µM (inactive) | > 100 µM (inactive) | 45.3 µM (inactive) | 25.5 µM (inactive) | 7.66 µM (inactive) | > 100 µM (inactive) | 18.7 µM (inactive) | 51.6 µM (inactive) | 2.69 µM (inactive) | 21.4 µM (inactive)
3 | CN(C)Cc1c[nH]c2ncnc(O)c12 | 26.2 µM (inactive) | > 100 µM (inactive) | > 100 µM (inactive) | 27.2 µM (inactive) | > 100 µM (inactive) | 22.4 µM (inactive) | 43.6 µM (inactive) | 23.1 µM (inactive) | 31.8 µM (inactive) | 37.7 µM (inactive) | 20.6 µM (inactive) | 26.4 µM (inactive) | 19.8 µM (inactive) | 62.7 µM (inactive) | 27.1 µM (inactive) | 19.7 µM (inactive) | 32.8 µM (inactive) | 20.7 µM (inactive) | 38.9 µM (inactive) | 20.9 µM (inactive)
4 | Cc1c(CCCl)c(=O)n2c([nH]c3ccccc32)c1C#N | 1.72 µM (inactive) | 2.1 µM (inactive) | 1.66 µM (inactive) | 0.973 µM (active) | 3.22 µM (inactive) | 1.48 µM (inactive) | 2.79 µM (inactive) | 1.61 µM (inactive) | 1.83 µM (inactive) | 2.54 µM (inactive) | 1.3 µM (inactive) | 2.21 µM (inactive) | 1.46 µM (inactive) | 1.27 µM (inactive) | 0.527 µM (active) | 1.55 µM (inactive) | 1.77 µM (inactive) | 1.34 µM (inactive) | 1.5 µM (inactive) | 1.34 µM (inactive)
5 | CCCCCCCCCCCCCCCCS(=O)(=O)c1ccc(NN)cc1 | > 10 µM (inactive) | > 10 µM (inactive) | > 10 µM (inactive) | > 10 µM (inactive) | 7.96 µM (inactive) | 7.43 µM (inactive) | > 10 µM (inactive) | > 10 µM (inactive) | > 10 µM (inactive) | > 10 µM (inactive) | 5.33 µM (inactive) | > 10 µM (inactive) | > 10 µM (inactive) | > 10 µM (inactive) | 2.77 µM (inactive) | 1.5 µM (inactive) | 8.17 µM (inactive) | 2.71 µM (inactive) | 7.1 µM (inactive) | > 10 µM (inactive)
6 | COc1cc(C)cc2c1c(=O)c1ccccc1n2C | 32.7 µM (inactive) | 60 µM (inactive) | 20.8 µM (inactive) | 46.2 µM (inactive) | 48.3 µM (inactive) | 20.2 µM (inactive) | 15.9 µM (inactive) | 19 µM (inactive) | 35.4 µM (inactive) | 56.4 µM (inactive) | 19.7 µM (inactive) | 49.3 µM (inactive) | 54.8 µM (inactive) | 33.8 µM (inactive) | 22.1 µM (inactive) | 33.7 µM (inactive) | 35.3 µM (inactive) | 18.2 µM (inactive) | 31.4 µM (inactive) | 33.7 µM (inactive)
7 | O=c1c2cccnc2[nH]c2ccc3[nH]ncc3c12 | > 10 µM (inactive) | > 10 µM (inactive) | > 10 µM (inactive) | > 10 µM (inactive) | > 10 µM (inactive) | > 10 µM (inactive) | > 10 µM (inactive) | > 10 µM (inactive) | > 10 µM (inactive) | > 10 µM (inactive) | > 10 µM (inactive) | > 10 µM (inactive) | 7.45 µM (inactive) | > 10 µM (inactive) | > 10 µM (inactive) | > 10 µM (inactive) | > 10 µM (inactive) | > 10 µM (inactive) | > 10 µM (inactive) | > 10 µM (inactive)
8 | O=C1C(/N=N/c2ccc(-c3nc4ccccc4[nH]3)cc2)NC(=S)N1c1ccccc1 (stereo not given) | 56.9 µM (inactive) | > 100 µM (inactive) | 91.6 µM (inactive) | 28.1 µM (inactive) | > 100 µM (inactive) | 51.9 µM (inactive) | > 100 µM (inactive) | 39.5 µM (inactive) | 67.3 µM (inactive) | > 100 µM (inactive) | 22.1 µM (inactive) | 28.6 µM (inactive) | > 100 µM (inactive) | > 100 µM (inactive) | 0.671 µM (active) | > 100 µM (inactive) | 61.9 µM (inactive) | 17.1 µM (inactive) | > 100 µM (inactive) | > 100 µM (inactive)
9 | Nc1ccn([C@H]2CO[C@@H](CO)O2)c(=O)n1 | 1.58 µM (inactive) | 3.77 µM (inactive) | 1.2 µM (inactive) | > 56.6 µM (inactive) | > 100 µM (inactive) | 4.46 µM (inactive) | > 100 µM (inactive) | 17.4 µM (inactive) | 20.8 µM (inactive) | > 100 µM (inactive) | > 94 µM (inactive) | 0.0658 µM (active) | 0.222 µM (active) | 3.88 µM (inactive) | 1.49 µM (inactive) | 0.252 µM (active) | > 100 µM (inactive) | 26.1 µM (inactive) | 1.82 µM (inactive) | 2.37 µM (inactive)

— ChEMBL document CHEMBL1201862, “PubChem BioAssay data set” (2004)
